Data taken from ChEMBL document CHEMBL3885861, “Open TG-GATES”.

Species on record: Rattus norvegicus
Test: Open TG-GATES - Regimen: Daily Repeat
Type: toxicity, organism-based, Sprague-Dawley
Parameters: regimen Daily Repeat, gender Male, age 6 weeks
Settings: in vivo, po, 0 mg/kg, route gavage, dose level Control; for APTT / Bas / Eos / Fbg / Hb / Ht / Lym / MCH / MCHC / MCV / Mono / Neu / PT / Plat / RBC / Ret / WBC: tissue Blood; for KIDNEY_L / KIDNEY_R / KIDNEY_TOTAL: tissue Kidney; for LIVER: tissue Liver; for A/G / ALP / ALT / AST / BUN / CRE / Ca / Cl / DBIL / GLC / IP / K / LDH / Na / PL / RALB / TBIL / TC / TG / TP / gamma-GTP: tissue Plasma

`COc1ccc(O)c(C(C)(C)C)c1.COc1ccc(O)cc1C(C)(C)C` [BUTYLATED HYDROXYANISOLE] gave a TERMINAL_BW (72 h, time 3 day) of 225.6 g, an APTT (72 h, time 3 day) of 15.7 s and a Bas (72 h, time 3 day) of 0.2%. It also gave an Eos (72 h, time 3 day) of 0.8%, a Fbg (72 h, time 3 day) of 265.6 mg/dL and a Hb (72 h, time 3 day) of 12.9 g/dL. The Ht (72 h, time 3 day) was 38%, the Lym (72 h, time 3 day) was 71.6% and the MCH (72 h, time 3 day) was 20.9 pg. For the same molecule, the MCHC (72 h, time 3 day) was 34%, the MCV (72 h, time 3 day) was 61.5 fL and the Mono (72 h, time 3 day) was 2.4%. It also gave a Neu (72 h, time 3 day) of 24.3%, a PT (72 h, time 3 day) of 11.5 s and a Plat (72 h, time 3 day) of 140.6 x10_4/uL. The RBC (72 h, time 3 day) was 619 x10_4/ul, the Ret (72 h, time 3 day) was 6.6% and the WBC (72 h, time 3 day) was 90.7 x10_2/uL. It also gave a KIDNEY_L (72 h, time 3 day) of 0.9 g, a KIDNEY_R (72 h, time 3 day) of 0.9 g and a KIDNEY_TOTAL (72 h, time 3 day) of 1.9 g. It also gave an LIVER (72 h, time 3 day) of 10.1 g, an A/G (72 h, time 3 day) of 0.8 and an ALP (72 h, time 3 day) of 1690.8 IU/L. The ALT (72 h, time 3 day) was 37.2 IU/L, the AST (72 h, time 3 day) was 66.4 IU/L and the BUN (72 h, time 3 day) was 12.8 mg/dL. The CRE (72 h, time 3 day) was 0.2 mg/dL, the Ca (72 h, time 3 day) was 11.2 mg/dL and the Cl (72 h, time 3 day) was 106 meq/L. For the same molecule, the DBIL (72 h, time 3 day) was 0.02 mg/dL, the GLC (72 h, time 3 day) was 178.4 mg/dL and the IP (72 h, time 3 day) was 7.3 mg/dL. It also gave a K (72 h, time 3 day) of 4 meq/L, an LDH (72 h, time 3 day) of 60.4 IU/L and a Na (72 h, time 3 day) of 143 meq/L. The PL (72 h, time 3 day) was 136.2 mg/dL, the RALB (72 h, time 3 day) was 2.6 g/dL and the TBIL (72 h, time 3 day) was 0.064 mg/dL. The TC (72 h, time 3 day) was 76.8 mg/dL, the TG (72 h, time 3 day) was 69.4 mg/dL and the TP (72 h, time 3 day) was 5.8 g/dL. The gamma-GTP (72 h, time 3 day) was 1 IU/L, the TERMINAL_BW ([…], time 7 day) was 252.9 g and the TERMINAL_BW ([…], time 14 day) was 320.1 g. It also gave a TERMINAL_BW ([…], time 28 day) of 409.6 g, an APTT ([…], time 7 day) of 19 s and a Bas ([…], time 7 day) of 0.3%. The Eos ([…], time 7 day) was 0.8%, the Fbg ([…], time 7 day) was 288.2 mg/dL and the Hb ([…], time 7 day) was 13.5 g/dL. It also gave a Ht ([…], time 7 day) of 38.9%, a Lym ([…], time 7 day) of 76.5% and an MCH ([…], time 7 day) of 20.8 pg. The MCHC ([…], time 7 day) was 34.7%, the MCV ([…], time 7 day) was 60.1 fL and the Mono ([…], time 7 day) was 2.5%. It also gave a Neu ([…], time 7 day) of 19.2%, a PT ([…], time 7 day) of 12.2 s and a Plat ([…], time 7 day) of 135.8 x10_4/uL. For the same molecule, the RBC ([…], time 7 day) was 647.4 x10_4/ul, the Ret ([…], time 7 day) was 5.1% and the WBC ([…], time 7 day) was 94.6 x10_2/uL. It also gave an APTT ([…], time 14 day) of 16.9 s, a Bas ([…], time 14 day) of 0.3% and an Eos ([…], time 14 day) of 0.6%. It also gave a Fbg ([…], time 14 day) of 269.2 mg/dL, a Hb ([…], time 14 day) of 13.9 g/dL and a Ht ([…], time 14 day) of 40.5%. The Lym ([…], time 14 day) was 78.2%, the MCH ([…], time 14 day) was 19.9 pg and the MCHC ([…], time 14 day) was 34.4%. The MCV ([…], time 14 day) was 57.8 fL, the Mono ([…], time 14 day) was 1.9% and the Neu ([…], time 14 day) was 18.2%. For the same molecule, the PT ([…], time 14 day) was 12.2 s, the Plat ([…], time 14 day) was 143.4 x10_4/uL and the RBC ([…], time 14 day) was 700.6 x10_4/ul. The Ret ([…], time 14 day) was 3.6%, the WBC ([…], time 14 day) was 111.3 x10_2/uL and the APTT ([…], time 28 day) was 17.9 s. The Bas ([…], time 28 day) was 0.4%, the Eos ([…], time 28 day) was 0.9% and the Fbg ([…], time 28 day) was 262.8 mg/dL. The Hb ([…], time 28 day) was 15 g/dL, the Ht ([…], time 28 day) was 41.8% and the Lym ([…], time 28 day) was 78.1%. The MCH ([…], time 28 day) was 19.5 pg, the MCHC ([…], time 28 day) was 35.9% and the MCV ([…], time 28 day) was 54.4 fL. The Mono ([…], time 28 day) was 1.8%, the Neu ([…], time 28 day) was 18.2% and the PT ([…], time 28 day) was 12.3 s. For the same molecule, the Plat ([…], time 28 day) was 121 x10_4/uL, the RBC ([…], time 28 day) was 769 x10_4/ul and the Ret ([…], time 28 day) was 2.3%. It also gave a WBC ([…], time 28 day) of 105.1 x10_2/uL, a KIDNEY_L ([…], time 7 day) of 1 g and a KIDNEY_R ([…], time 7 day) of 1 g. The KIDNEY_TOTAL ([…], time 7 day) was 2 g, the KIDNEY_L ([…], time 14 day) was 1.2 g and the KIDNEY_R ([…], time 14 day) was 1.2 g. For the same molecule, the KIDNEY_TOTAL ([…], time 14 day) was 2.3 g, the KIDNEY_L ([…], time 28 day) was 1.3 g and the KIDNEY_R ([…], time 28 day) was 1.3 g. The KIDNEY_TOTAL ([…], time 28 day) was 2.6 g, the LIVER ([…], time 7 day) was 11.4 g and the LIVER ([…], time 14 day) was 14.3 g. For the same molecule, the LIVER ([…], time 28 day) was 16.7 g, the A/G ([…], time 7 day) was 0.8 and the ALP ([…], time 7 day) was 1903.8 IU/L. It also gave an ALT ([…], time 7 day) of 44.4 IU/L, an AST ([…], time 7 day) of 67 IU/L and a BUN ([…], time 7 day) of 16 mg/dL. The CRE ([…], time 7 day) was 0.2 mg/dL, the Ca ([…], time 7 day) was 11 mg/dL and the Cl ([…], time 7 day) was 104.8 meq/L. It also gave a DBIL ([…], time 7 day) of 0.02 mg/dL, a GLC ([…], time 7 day) of 180.2 mg/dL and an IP ([…], time 7 day) of 7 mg/dL. For the same molecule, the K ([…], time 7 day) was 4.1 meq/L, the LDH ([…], time 7 day) was 58.2 IU/L and the Na ([…], time 7 day) was 142 meq/L. It also gave a PL ([…], time 7 day) of 135.4 mg/dL, an RALB ([…], time 7 day) of 2.6 g/dL and a TBIL ([…], time 7 day) of 0.048 mg/dL. For the same molecule, the TC ([…], time 7 day) was 70.6 mg/dL, the TG ([…], time 7 day) was 95.2 mg/dL and the TP ([…], time 7 day) was 5.9 g/dL. The gamma-GTP ([…], time 7 day) was 1 IU/L, the A/G ([…], time 14 day) was 0.8 and the ALP ([…], time 14 day) was 1384.2 IU/L. The ALT ([…], time 14 day) was 32 IU/L, the AST ([…], time 14 day) was 57.6 IU/L and the BUN ([…], time 14 day) was 14.4 mg/dL. It also gave a CRE ([…], time 14 day) of 0.2 mg/dL, a Ca ([…], time 14 day) of 10.7 mg/dL and a Cl ([…], time 14 day) of 105.8 meq/L. For the same molecule, the DBIL ([…], time 14 day) was 0.018 mg/dL, the GLC ([…], time 14 day) was 181.4 mg/dL and the IP ([…], time 14 day) was 6.6 mg/dL. For the same molecule, the K ([…], time 14 day) was 3.7 meq/L, the LDH ([…], time 14 day) was 52 IU/L and the Na ([…], time 14 day) was 143 meq/L. The PL ([…], time 14 day) was 137 mg/dL, the RALB ([…], time 14 day) was 2.7 g/dL and the TBIL ([…], time 14 day) was 0.048 mg/dL. It also gave a TC ([…], time 14 day) of 72.8 mg/dL, a TG ([…], time 14 day) of 133.8 mg/dL and a TP ([…], time 14 day) of 6 g/dL. It also gave a gamma-GTP ([…], time 14 day) of 1 IU/L, an A/G ([…], time 28 day) of 0.7 and an ALP ([…], time 28 day) of 1254.6 IU/L. It also gave an ALT ([…], time 28 day) of 32.6 IU/L, an AST ([…], time 28 day) of 57.6 IU/L and a BUN ([…], time 28 day) of 17.8 mg/dL. The CRE ([…], time 28 day) was 0.3 mg/dL, the Ca ([…], time 28 day) was 10.8 mg/dL and the Cl ([…], time 28 day) was 104.8 meq/L. For the same molecule, the DBIL ([…], time 28 day) was 0.02 mg/dL, the GLC ([…], time 28 day) was 191 mg/dL and the IP ([…], time 28 day) was 5.4 mg/dL. It also gave a K ([…], time 28 day) of 4 meq/L, an LDH ([…], time 28 day) of 62.2 IU/L and a Na ([…], time 28 day) of 143.2 meq/L. For the same molecule, the PL ([…], time 28 day) was 134.6 mg/dL, the RALB ([…], time 28 day) was 2.6 g/dL and the TBIL ([…], time 28 day) was 0.054 mg/dL. For the same molecule, the TC ([…], time 28 day) was 68.6 mg/dL, the TG ([…], time 28 day) was 179.6 mg/dL and the TP ([…], time 28 day) was 6.2 g/dL. For the same molecule, the gamma-GTP ([…], time 28 day) was 1 IU/L.
